Measurements as given in patent US6040307A, “Methods ad compositions of (-) ketoconazole for treating fungal yeast and dermatophyte infections” (priority 1999, dated 2000).
“Also recorded” adds a separate entry of the source.

How the values were obtained:
delayed rectifier (Ik) = settings: cited from earlier work
cardiac repolarization = settings: in vivo; cited from earlier work
[1] = system: isolated guinea pig hearts; experiment: QT duration and action potential duration in isolated guinea pig hearts, perfused with oxygenated Tyrode's solution
Experimental: The hearts were perfused with an oxygenated Tyrode's solution, containing 0.0; 1.0; 5.0 or 10.0 μM of ketoconazole. QT duration and action potential duration (APD) were measured from cardiac electrodes. APD was measured at 50% (APD-50) and 90% (APD-90). In the table, "N" is the number of hearts, and QT and APD are measured in milliseconds.

[2] = system: microsporum canis, trichophyton mentagrophytes, candida tropicalis, candida albicans, and other fungi and bacteria; settings: cited from earlier work
synthesis of ergosterol = settings: fungal cell membranes; cited from earlier work
liver = settings: cited from earlier work
patients = settings: human, in vivo; cited from earlier work
[3] = in vivo, po; cited from earlier work
[4] = of 75 cases adequately followed up

C=C[C@H]1C[N@@]2CC[C@H]1C[C@@H]2[C@@H](O)c1ccnc2ccc(OC)cc12 [quinidine]
block of cellular potassium channel delayed rectifier (Ik) (delayed rectifier (Ik)): block a cellular potassium channel called the delayed rectifier (Ik) | prolongation of cardiac repolarization (cardiac repolarization): cause a prolongation of cardiac repolarization | torsades de pointes (side effect) (cardiac repolarization): well known side effect

CC(=O)N1CCN(c2ccc(OCC3COC(Cn4ccnc4)(c4ccc(Cl)cc4Cl)O3)cc2)CC1 (racemic) [Ketoconazole, 1-acetyl-4-[4-[[2-(2,4-dichlorophenyl)-2-(1H-imidazole-1-ylmethyl)-1,3-dioxolan-4-yl]methoxy]phenyl]piperazine]
APD-50 ([1]; 1.0 μM, N = 2 hearts, baseline 145 ± 5): 149 ± 1 milliseconds | APD-90 ([1]; 1.0 μM, N = 2 hearts, baseline 185 ± 10): 195 ± 5 milliseconds | QT ([1]; 1.0 μM, N = 2 hearts, baseline 230 ± 10): 232 ± 9 milliseconds | APD-50 ([1]; 5.0 μM, N = 3 hearts, baseline 147 ± 5): 163 ± 5 milliseconds | APD-90 ([1]; 5.0 μM, N = 3 hearts, baseline 187 ± 9): 221 ± 8 milliseconds | QT ([1]; 5.0 μM, N = 3 hearts, baseline 233 ± 9): 261 ± 8 milliseconds | APD-50 ([1]; 10.0 μM, N = 3 hearts, baseline 140 ± 8): 173 ± 2 milliseconds | APD-90 ([1]; 10.0 μM, N = 3 hearts, baseline 177 ± 14): 233 ± 9 milliseconds | QT duration and action potential duration (in words) ([1]; isolated guinea pig hearts): increases QT duration and action potential duration | arrhythmogenic effect (in words) ([1]; isolated guinea pig hearts, listed as racemic ketoconazole): may be associated with an increased risk of cardiac arrhythmia; also recorded: indicative of a potential arrhythmogenic effect | effect of 10% inactivated bovine serum on antifungal activity ([2]; Sabouraud broth containing 10% inactivated bovine serum): enhanced | inhibition of growth ([2]; Sabouraud broth, 14 days of incubation): Complete or marked inhibition of growth | synthesis of ergosterol (synthesis of ergosterol): impairs the synthesis of ergosterol | reports of hepatotoxicity (liver; 1981-1984, United Kingdom): 82 reports | time for liver function tests to return to normal after treatment was stopped (average) (liver; average): 3.1 months | hepatocellular injury suggested by serum liver function tests (liver; in vivo): 10 of the 16 | deaths among the cases probably related to treatment (liver; of 16 cases): 3 deaths | cases possibly related to treatment (liver; [4]): 48 cases | cases probably related to treatment (liver; [4]): 16 cases | deaths among the reports of hepatotoxicity (liver; of 82 reports): 5 deaths | gastrointestinal side effects, occurrence in patients (patients): 5-10 % of patients | torsades de pointes (patients): torsades de pointes, has been reported | major route of excretion [3]: via the bile into the intestinal tract | metabolism [3]: eventually metabolized to several inactive metabolites | serum concentration [3]: a linear increase in serum concentration

CC(C)NCC(O)c1ccc(NS(C)(=O)=O)cc1 (stereo not shown) [sotalol]
block of cellular potassium channel delayed rectifier (Ik) (delayed rectifier (Ik)): block a cellular potassium channel called the delayed rectifier (Ik) | prolongation of cardiac repolarization (cardiac repolarization): cause a prolongation of cardiac repolarization | torsades de pointes (side effect) (cardiac repolarization): well known side effect

CCN(CC)CCNC(=O)c1ccc(NC(C)=O)cc1 [acetyl-procainamide]
block of cellular potassium channel delayed rectifier (Ik) (delayed rectifier (Ik)): block a cellular potassium channel called the delayed rectifier (Ik) | prolongation of cardiac repolarization (cardiac repolarization): cause a prolongation of cardiac repolarization | torsades de pointes (side effect) (cardiac repolarization): well known side effect
